Where a name gives a salt, the structure may show the parent alone.
Assays:
Assay type in all cases: biochemical
[1] = biological target: T1, Aurora A (Homo sapiens, UniProt O14965); test: Aurora A counter screen; conditions: read-out: AUR-A (IC50)
T1 sequence (O14965 1-403): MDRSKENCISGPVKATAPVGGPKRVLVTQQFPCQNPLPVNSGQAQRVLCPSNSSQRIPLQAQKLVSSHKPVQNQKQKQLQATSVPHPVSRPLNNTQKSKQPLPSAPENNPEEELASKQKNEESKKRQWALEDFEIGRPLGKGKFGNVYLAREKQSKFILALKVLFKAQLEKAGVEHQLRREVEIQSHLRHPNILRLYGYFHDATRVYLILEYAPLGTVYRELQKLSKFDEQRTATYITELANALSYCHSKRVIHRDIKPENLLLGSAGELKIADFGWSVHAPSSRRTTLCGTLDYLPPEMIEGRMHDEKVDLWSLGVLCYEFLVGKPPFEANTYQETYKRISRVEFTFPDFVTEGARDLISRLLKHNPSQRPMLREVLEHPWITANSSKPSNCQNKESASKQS
Method: (§1) To identify small molecule NUAK inhibitors, a biochemical NUAK2 enzymatic assay was outsourced to Eurofins. This assay was done radiometrically using full-length, recombinant enzyme. NUAK2 (h) was incubated with 8 mM MOPS pH 7.0, 0.2 mM EDTA, 300 μM […], 10 mM magnesium acetate and […] (specific activity and concentration as required). The reaction was initiated by the addition of the Mg/ATP mix. After incubation for 40 minutes at room temperature, the reaction was stopped by the addition of phosphoric acid to a concentration of 0.5%. 10 μL of the reaction was then spotted onto a P30 filter mat and washed four times for 4 minutes in 0.425% phosphoric acid and once in methanol prior to drying and scintillation counting. Compounds were routinely counter screened against Aurora A and NUAK1. The results are shown in Table 1 where IC50s are reported the following ranges: A: 0.1-10 nM; B: 11-100 nM; C: 101-1000 nM; D: >1000 nM for the compounds of Formula I)

[2] = biological target: T2, NUAK2 (h) (Homo sapiens, UniProt Q9H093); test: NUAK2 enzymatic assay (radiometric, Eurofins); conditions: for IC50: radiometric, full-length recombinant enzyme
T2 construct: This assay was done radiometrically using full-length, recombinant enzyme; purchased Eurofins
T2 sequence (Q9H093 1-628): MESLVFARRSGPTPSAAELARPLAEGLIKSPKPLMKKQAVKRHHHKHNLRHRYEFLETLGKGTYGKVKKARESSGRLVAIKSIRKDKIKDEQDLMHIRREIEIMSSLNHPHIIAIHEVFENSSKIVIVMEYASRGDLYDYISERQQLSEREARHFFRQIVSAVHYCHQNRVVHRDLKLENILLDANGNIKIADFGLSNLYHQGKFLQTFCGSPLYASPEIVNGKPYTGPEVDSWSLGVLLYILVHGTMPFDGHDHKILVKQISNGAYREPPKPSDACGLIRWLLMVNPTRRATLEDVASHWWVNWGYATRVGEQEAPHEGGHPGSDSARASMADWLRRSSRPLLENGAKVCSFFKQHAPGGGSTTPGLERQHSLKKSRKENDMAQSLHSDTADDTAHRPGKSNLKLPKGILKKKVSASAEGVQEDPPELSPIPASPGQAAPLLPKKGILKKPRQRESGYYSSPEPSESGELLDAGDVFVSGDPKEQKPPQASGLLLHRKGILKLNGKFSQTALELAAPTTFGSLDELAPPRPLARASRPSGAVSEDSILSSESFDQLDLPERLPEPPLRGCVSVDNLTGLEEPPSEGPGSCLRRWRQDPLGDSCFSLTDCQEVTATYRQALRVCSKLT
Method: as §1

[3] = biological target: T3, NUAK1 (Homo sapiens, UniProt O60285); test: NUAK1 counter screen
T3 sequence (O60285 1-661): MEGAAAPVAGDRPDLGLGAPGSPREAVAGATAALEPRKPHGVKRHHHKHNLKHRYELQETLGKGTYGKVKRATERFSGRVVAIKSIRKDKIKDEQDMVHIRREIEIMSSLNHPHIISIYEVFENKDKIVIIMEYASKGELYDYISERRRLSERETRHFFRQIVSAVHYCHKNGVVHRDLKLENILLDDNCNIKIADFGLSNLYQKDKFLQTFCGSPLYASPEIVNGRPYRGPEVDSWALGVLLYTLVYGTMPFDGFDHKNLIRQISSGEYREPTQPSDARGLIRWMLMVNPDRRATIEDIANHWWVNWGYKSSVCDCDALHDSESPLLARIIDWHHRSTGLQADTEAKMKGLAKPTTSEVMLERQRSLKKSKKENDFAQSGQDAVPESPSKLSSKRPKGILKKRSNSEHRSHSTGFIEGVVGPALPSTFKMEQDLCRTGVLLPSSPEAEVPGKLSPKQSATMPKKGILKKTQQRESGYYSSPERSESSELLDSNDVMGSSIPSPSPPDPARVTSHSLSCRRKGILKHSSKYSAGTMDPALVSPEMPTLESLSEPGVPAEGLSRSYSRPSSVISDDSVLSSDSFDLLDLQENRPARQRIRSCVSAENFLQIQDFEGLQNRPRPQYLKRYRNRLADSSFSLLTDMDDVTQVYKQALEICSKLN
Method: as §1

Row | SMILES | IC50 [1] [nM] | IC50 [2] [nM] | IC50 [3] [nM] | AUR-A (IC50, nM)/NUAK2 (IC50, nM) ([2]; NUAK2 selectivity over Aurora-A, ratio of IC50s)
1 | NC(=O)c1sccc1Nc1nc(Nc2ccc(N3CCOCC3)cc2OC(F)F)ncc1C(F)(F)F [Compound I-39, 3-((2-((2-(difluoromethoxy)-4-morpholinophenyl)amino)-5-(trifluoromethyl)pyrimidin-4-yl)amino)thiophene-2-carboxamide] | 101 to 1000 | 11 to 100 | 11 to 100 | 
2 | CN1CCN(c2ccc(Nc3ncc(Cl)c(N[C@@H]4CCCC[C@@H]4C(N)=O)n3)c(C(F)(F)F)c2)CC1 [Compound I-85, (1S,2R)-2-((5-chloro-2-((4-(4-methylpiperazin-1-yl)-2-(trifluoromethyl)phenyl)amino)pyrimidin-4-yl)amino)cyclohexane-1-carboxamide] | > 1000 | 11 to 100 | 101 to 1000 | 
3 | NC(=O)c1sccc1Nc1nc(Nc2ccc(N3CCC(N4CCN5CCC[C@@H]5C4)CC3)cc2OC(F)F)ncc1Cl [Compound I-71, (R)-3-((5-chloro-2-((2-(difluoromethoxy)-4-(4-(hexahydropyrrolo[1,2-a]pyrazin-2(1H)-yl)piperidin-1-yl)phenyl)amino)pyrimidin-4-yl)amino)thiophene-2-carboxamide] | 11 to 100 | 11 to 100 | 11 to 100 | 
4 | CN1CCN(C2CCN(c3ccc(Nc4ncc(C#N)c(Nc5ccsc5C(N)=O)n4)c(OC(F)F)c3)CC2)CC1 [Compound I-80, 3-((5-cyano-2-((2-(difluoromethoxy)-4-(4-(4-methylpiperazin-1-yl)piperidin-1-yl)phenyl)amino)pyrimidin-4-yl)amino)thiophene-2-carboxamide] | 101 to 1000 | 11 to 100 | 11 to 100 | 
5 | CN1CCC(c2ccc(Nc3ncc(Cl)c(Nc4ccsc4C(N)=O)n3)c(OC(F)F)c2)CC1 [Compound I-25, 3-((5-chloro-2-((2-(difluoromethoxy)-4-(1-methylpiperidin-4-yl)phenyl)amino)pyrimidin-4-yl)amino)thiophene-2-carboxamide] | 101 to 1000 | 11 to 100 | 11 to 100 | 
6 | CN1CCN(c2ccc(Nc3ncc(Cl)c(Nc4ccsc4C(N)=O)n3)c(Cl)c2F)CC1 [Compound C-4, reference compound] | 101 to 1000 | 0.1 to 10 | 0.1 to 10 | 50
7 | CNC(=O)c1sccc1Nc1nc(Nc2ccc(N3CCN(C)CC3)cc2C(F)(F)F)ncc1Cl [Compound I-59, 3-((5-chloro-2-((4-(4-methylpiperazin-1-yl)-2-(trifluoromethyl)phenyl)amino)pyrimidin-4-yl)amino)-N-methylthiophene-2-carboxamide] | > 1000 | 11 to 100 |  | 
8 | CN1CCN(C2CCN(c3ccc(Nc4ncc(Cl)c(Nc5sccc5C(N)=O)n4)c(OC(F)F)c3)CC2)CC1 [Compound I-74, 2-((5-chloro-2-((2-(difluoromethoxy)-4-(4-(4-methylpiperazin-1-yl)piperidin-1-yl)phenyl)amino)pyrimidin-4-yl)amino)thiophene-3-carboxamide] | > 1000 |  | 11 to 100 | 

Next, values leading:

Row | IC50 [1] [nM] | IC50 [2] [nM] | IC50 [3] [nM] | AUR-A (IC50, nM)/NUAK2 (IC50, nM) ([2]; NUAK2 selectivity over Aurora-A, ratio of IC50s) | SMILES
9 | 11 to 100 | 0.1 to 10 | 0.1 to 10 |  | CC(C)N1CCN(c2ccc(Nc3ncc(Cl)c(Nc4ccsc4C(N)=O)n3)c(OC(F)F)c2)CC1 [Compound I-12, 3-((5-chloro-2-((2-(difluoromethoxy)-4-(4-isopropylpiperazin-1-yl)phenyl)amino)pyrimidin-4-yl)amino)thiophene-2-carboxamide hydrochloride]
10 | 11 to 100 | 11 to 100 | 11 to 100 |  | NC(=O)c1sccc1Nc1nc(Nc2ccc(N3CCC(O)CC3)cc2OC(F)F)ncc1Cl [Compound I-60, 3-((5-chloro-2-((2-(difluoromethoxy)-4-(4-hydroxypiperidin-1-yl)phenyl)amino)pyrimidin-4-yl)amino)thiophene-2-carboxamide]
11 | 11 to 100 | 11 to 100 | 11 to 100 |  | C[C@H]1CN(C)CCN1C1CCN(c2ccc(Nc3ncc(Cl)c(Nc4ccsc4C(N)=O)n3)c(OC(F)F)c2)CC1 [Compound I-70, (S)-3-((5-chloro-2-((2-(difluoromethoxy)-4-(4-(2,4-dimethylpiperazin-1-yl)piperidin-1-yl)phenyl)amino)pyrimidin-4-yl)amino)thiophene-2-carboxamide]
12 | 11 to 100 | 0.1 to 10 | 0.1 to 10 |  | C[C@@H]1CN(c2ccc(Nc3ncc(Cl)c(Nc4ccsc4C(N)=O)n3)c(OC(F)F)c2)C[C@H](C)N1C [Compound I-8, 3-((5-chloro-2-((2-(difluoromethoxy)-4-((3R,5S)-3,4,5-trimethylpiperazin-1-yl)phenyl)amino)pyrimidin-4-yl)amino)thiophene-2-carboxamide]
13 | 101 to 1000 | 11 to 100 | 11 to 100 |  | CC(C)N1C[C@@H]2C[C@H]1CN2c1ccc(Nc2ncc(Cl)c(Nc3sccc3C(N)=O)n2)c(OC(F)F)c1 (stereo in doubt) [Compound I-36, 2-((5-chloro-2-((2-(difluoromethoxy)-4-((1S,4S)-5-isopropyl-2,5-diazabicyclo[2.2.1]heptan-2-yl)phenyl)amino)pyrimidin-4-yl)amino)thiophene-3-carboxamide]
14 | 101 to 1000 | 11 to 100 | 11 to 100 |  | CN1CCC(N(C)c2ccc(Nc3ncc(Cl)c(Nc4ccsc4C(N)=O)n3)c(OC(F)F)c2)CC1 [Compound I-66, 3-((5-chloro-2-((2-(difluoromethoxy)-4-(methyl(1-methylpiperidin-4-yl)amino)phenyl)amino)pyrimidin-4-yl)amino)thiophene-2-carboxamide]
15 | 101 to 1000 | 11 to 100 | 11 to 100 |  | CN(C1CCCCC1)C1CCN(c2ccc(Nc3ncc(Cl)c(Nc4ccsc4C(N)=O)n3)c(OC(F)F)c2)CC1 [Compound I-73, 3-((5-chloro-2-((4-(4-(cyclohexyl(methyl)amino)piperidin-1-yl)-2-(difluoromethoxy)phenyl)amino)pyrimidin-4-yl)amino)thiophene-2-carboxamide]
16 |  | 11 to 100 | 101 to 1000 |  | COc1cnc(Nc2ccc(N3CCN(C)CC3)cc2OC(F)F)nc1Nc1ccsc1C(N)=O [Compound I-81]
17 | 101 to 1000 | 0.1 to 10 | 0.1 to 10 |  | CN1C[C@@H]2CN(c3ccc(Nc4ncc(Cl)c(Nc5ccsc5C(N)=O)n4)c(OC(F)F)c3)C[C@@H]2C1 [Compound I-57, 3-((5-chloro-2-((2-(difluoromethoxy)-4-((3aR,6aS)-5-methylhexahydropyrrolo[3,4-c]pyrrol-2(1H)-yl)phenyl)amino)pyrimidin-4-yl)amino)thiophene-2-carboxamide]

Source: patent US20240025887A1, “THIENYL AND CYCLOALKYL AMINOPYRIMIDINE COMPOUNDS AS INHIBITORS OF NUAK KINASES, COMPOSITIONS AND USES THEREOF” (Ontario Institute for Cancer Research (OICR), priority 2021, published 2024)
